Assay type in all cases: cell-based
For assay [1], the system named is EGFR wild-type Ba/F3 cells. Description: Ba/F3 cell proliferation assay, EGFR wild-type. The settings on record: 72 h, Celltiter-Glo cell viability; for GI50: Mus musculus, BaF3, read-out: EGFR WT/BaF3 GI50. As for the experimental part: (§1) EGFR wild-type Ba/F3 cells (Cobioer, Cat. No. CBP73110) in the logarithmic growth phase were seeded into a 96-well plate at 2.5×10^3 cells/[…] in a growth medium, and HER2 wild-type Ba/F3 cells (Cobioer, Cat. No. CBP73110) or HER2 A775_G776insYVMA mutant Ba/F3 (Cobioer, Cat. No. CBP73184) in the logarithmic growth phase were seeded into a 96-well plate at 5×10^3 cells/100 μL in a growth medium.
(§2) The plates were placed in a cell incubator at 37° C. overnight. The compound diluted in 3-fold gradient with a medium was added to the plates at 100 μL/well the next day. All treatments were performed in triplicate. The plates were cultured in the cell incubator at 37° C. for another 72 h. Celltiter-Glo Luminescent cell viability assay was performed.
(§3) The cell proliferation rate corresponding to each well was calculated according to the following formula: proliferation %=(test compound well G3-GO average value)/(DMSO control well G3 average value -GO average value)×100. According to the corresponding proliferation rate and concentration of each gradient concentration well, a gradient curve of cell proliferation was fitted using Prism Graphpad software, and GI50 (GI50 is defined as the concentration of a compound corresponding to the cell proliferation inhibition rate of 50%) of the compound was calculated.

The subject of assay [2] is HER2 A775_G776insYVMA mutant Ba/F3. Description: Ba/F3 cell proliferation assay, HER2 A775_G776insYVMA mutant. The conditions noted are these: Mus musculus, BaF3, 72 h, Celltiter-Glo cell viability; for GI50: read-out: HER2 A775_G776 ins YVMA/BaF3 GI50; for Emax: read-out: HER2 A775_G776 ins YVMA/BaF3 Imax %. As for the experimental part: as §1, §2, §3
For assay [3], the system named is HER2 wild-type Ba/F3 cells. Description: Ba/F3 cell proliferation assay, HER2 wild-type. The settings on record: Mus musculus, BaF3, 72 h, Celltiter-Glo cell viability; for GI50: read-out: HER2 WT/BaF3 GI50; for Emax: read-out: HER2 WT/BaF3 Imax %. The protocol: as §1, §2, §3

Each structure is given as a SMILES string.

Consider `C=CC(=O)N1[C@@H]2CC[C@H]1C[C@@H](Oc1cc3c(Nc4ccc(Oc5ccn6ncnc6c5)c(C)c4F)ncnc3cn1)C2` [Example 20, 1-(endo-3-((4-((4-([1,2,4]Triazolo[1,5-a]pyridin-7-yloxy)-2-fluoro-3-methylphenyl)amino)pyrido[3,4-d]pyrimidin-6-yl)oxy)-8-azabicyclo[3.2.1]octan-8-yl)prop-2-en-1-one], for which, in assay [1], the “EGFR WT/BaF3 Imax %” value was 100% and the GI50 came to 3510 nM. In assay [2], the GI50 came to 15.5 nM and the Emax was 100%. For the same compound, in assay [3], the GI50 came to 13.2 nM and the Emax was found to be 100%.
Turning to `C=CC(=O)N1[C@@H]2CC[C@H]1C[C@H](Oc1cc3c(Nc4ccc(Oc5ccc6c(c5)ncn6C)c(C)c4)ncnc3cn1)C2` [Example 28, 1-(exo-3-((4-((3-Methyl-4-((1-methyl-1H-benzo[d]iimidazol-5-yl)oxy)phenyl)amino)pyrido[3,4-d]pyrimidin-6-yl)oxy)-8-azabicyclo[3.2.1]octan-8-yl)prop-2-en-1-one], in assay [1], the “EGFR WT/BaF3 Imax %” value is listed as −1.76% and the GI50 was above 10000 nM. For the same compound, in assay [3], the GI50 was 18.1 nM and the Emax is 100%.
With `C=CC(=O)N1[C@@H]2CC[C@H]1C[C@@H](Oc1cc3c(Nc4ccc(Oc5ccn6ncnc6c5)c(C)c4)ncnc3cn1)C2` [Example 16, 1-(endo-3-((4-((4-([1,2,4]Triazolo[1,5-a]pyridin-7-yloxy)-3-methylphenyl)amino)pyrido[3,4-d]pyrimidin-6-yl)oxy)-8-azabicyclo[3.2.1]octan-8-yl)prop-2-en-1-one], in assay [1], the “EGFR WT/BaF3 Imax %” value turned out to be 73% and the GI50 worked out at 7350 nM. In assay [2], the GI50 is 15.7 nM and the Emax is 100%. In assay [3], the GI50 came out at 9 nM and the Emax stood at 100%.
As to `C=CC(=O)N1[C@@H]2CC[C@H]1C[C@@H](Oc1ccc3ncnc(Nc4ccc(Oc5ccn6ncnc6c5)c(C)c4)c3c1)C2` [Example 1, 1-(endo-3-((4-((4-([1,2,4]Triazolo[1,5-a]pyridin-7-yloxy)-3-methylphenyl)amino)quinazolin-6-yl)oxy)-8-azabicyclo[3.2.1]octan-8-yl)prop-2-en-1-one], in assay [1], the “EGFR WT/BaF3 Imax %” value amounted to 97% and the GI50 worked out at 3740 nM. For the same compound, in assay [2], the GI50 was determined as 3.4 nM and the Emax was 100%. Further, in assay [3], the GI50 stood at 4.1 nM and the Emax came out at 100%.
`C=CC(=O)N1[C@@H]2CC[C@H]1C[C@H](Oc1cc3c(Nc4ccc(Oc5ccn6ncnc6c5)c(C)c4F)ncnc3cn1)C2` [Example 21, 1-(exo-3-((4-((4-([1,2,4]Triazolo[1,5-a]pyridin-7-yloxy)-2-fluoro-3-methylphenyl)amino)pyrido[3,4-d]pyrimidin-6-yl)oxy)-8-azabicyclo[3.2.1]octan-8-yl)prop-2-en-1-one]: in assay [1], the “EGFR WT/BaF3 Imax %” value was found to be 100% and the GI50 worked out at 913 nM. Further, in assay [2], the GI50 was 10.4 nM and the Emax was 100%. In assay [3], the GI50 was found to be 5.3 nM and the Emax worked out at 100%.
Regarding `C=CC(=O)N1[C@@H]2CC[C@H]1C[C@H](Oc1ccc3ncnc(Nc4ccc(Oc5cc6ncnn6cn5)c(C)c4)c3c1)C2` [Example 8, 1-(exo-3-((4-((4-([1,2,4]Triazolo[1,5-c]pyrimidin-7-yloxy)-3-methylphenyl)amino)quinazolin-6-yl)oxy)-8-azabicyclo[3.2.1]octan-8-yl)prop-2-en-1-one], in assay [2], the GI50 amounted to 15.7 nM and the Emax was found to be 100%. For the same compound, in assay [3], the GI50 was 6.3 nM and the Emax was 100%.
`C=CC(=O)N1[C@@H]2CC[C@H]1C[C@@H](Oc1cc3c(Nc4ccc(Oc5ccn6ncnc6c5)c(C)c4F)ncnc3cc1OCC)C2` [Example 17, 1-(endo-3-((4-((4-([1,2,4]Triazolo[1,5-a]pyridin-7-yloxy)-2-fluoro-3-methylphenyl)amino)-7-ethoxyquinazolin-6-yl)oxy)-8-azabicyclo[3.2.1]octan-8-yl)prop-2-en-1-one]: in assay [2], the GI50 is 13.9 nM and the Emax is 100%. Also, in assay [3], the GI50 turned out to be 5.1 nM and the Emax was found to be 100%.
As for `C=CC(=O)N1[C@@H]2CC[C@H]1C[C@H](Oc1ccc3ncnc(Nc4ccc(Oc5ccc6c(c5)ncn6C)c(C)c4F)c3c1)C2` [Example 19, 1-(exo-3-((4-((2-Fluoro-3-methyl-4-((1-methyl-1H-benzo[d]imidazol-5-yl)oxy)phenyl)amino)quinazolin-6-yl)oxy)-8-azabicyclo[3.2.1]octan-8-yl)prop-2-en-1-one], in assay [2], the GI50 was determined as 27 nM and the Emax came to 100%. Also, in assay [3], the GI50 is 14.9 nM and the Emax was 100%.
Turning to `C=CC(=O)N1[C@@H]2CC[C@H]1C[C@H](Oc1cc3c(Nc4ccc(Oc5ccc6c(c5)ncn6C)c(C)c4F)ncnc3cn1)C2` [Example 27, 1-(exo-3-((4-((2-Fluoro-3-methyl-4-((1-methyl-1H-benzo[d]iimidazol-5-yl)oxy)phenyl)amino)pyrido[3,4-d]pyrimidin-6-yl)oxy)-8-azabicyclo[3.2.1]octan-8-yl)prop-2-en-1-one], in assay [3], the GI50 turned out to be 12.5 nM and the Emax worked out at 100%.
With `C=CC(=O)N1[C@@H]2CC[C@H]1C[C@H](Oc1cc3c(Nc4ccc(Oc5ccc6c(c5)ncn6C)c(C)c4F)ncnc3cc1OC)C2` [Example 15, 1-(exo-3-((4-((2-Fluoro-3-methyl-4-((1-methyl-1H-benzo[d]imidazol-5-yl)oxy)phenyl)amino)-7-methoxyquinazolin-6-yl)oxy)-8-azabicyclo[3.2.1]octan-8-yl)prop-2-en-1-one], the values for the GI50 in assay [2] and in assay [3] were 19.4 nM and 14.9 nM, respectively. Further, the Emax in assay [2] and in assay [3] was 100% throughout.
With `Cc1cc(Nc2ncnc3ccc(NC4=NC(C)(C)CO4)cc23)ccc1Oc1ccn2ncnc2c1` [Tucatinib, tucatinib, reference compound], the Emax in assay [2] came out at 100%.
Consider `C=CC(=O)N1[C@@H]2CC[C@H]1C[C@H](Oc1ccc3ncnc(Nc4ccc(Oc5ccn6ncnc6c5)c(C)c4)c3c1)C2` [Example 9, 1-(exo-3-((4-((4-([1,2,4]Triazolo[1,5-a]pyridin-7-yloxy)-3-methylphenyl)amino)quinazolin-6-yl)oxy)-8-azabicyclo[3.2.1]octan-8-yl)prop-2-en-1-one], for which the results for the GI50 in assay [2] and in assay [3] were 13.8 nM and 13.5 nM, respectively. The Emax in assay [2] and in assay [3] was 100% throughout.
Turning to `C=CC(=O)N1[C@@H]2CC[C@H]1C[C@H](Oc1cc3c(Nc4ccc(Oc5ccn6ncnc6c5)c(C)c4F)ncnc3cc1OC)C2` [Example 13, 1-(exo-3-((4-((4-([1,2,4]Triazolo[1,5-a]pyridin-7-yloxy)-2-fluoro-3-methylphenyl)amino)-7-methoxyquinazolin-6-yl)oxy)-8-azabicyclo[3.2.1]octan-8-yl)prop-2-en-1-one], in assay [2], the GI50 worked out at 8.2 nM and the Emax stood at 100%. Also, in assay [3], the GI50 amounted to 4.8 nM and the Emax amounted to 100%.
In the case of `C=CC(=O)N1[C@@H]2CC[C@H]1C[C@H](Oc1cc3c(Nc4ccc(Oc5ccn6ncnc6c5)c(C)c4)ncnc3cc1OC)C2` [Example 6, 1-(exo-3-((4-((4-([1,2,4]Triazolo[1,5-a]pyridin-7-yloxy)-3-methylphenyl)amino)-7-methoxyquinazolin-6-yl)oxy)-8-azabicyclo[3.2.1]octan-8-yl)prop-2-en-1-one], in assay [2], the GI50 is 21.4 nM and the Emax was 100%. In assay [3], the GI50 was 25.2 nM and the Emax is 100%.

The record behind these values is patent publication US20250206760A1, “NITROGEN-CONTAINING HETEROCYCLIC COMPOUND, PREPARATION METHOD THEREFOR, AND PHARMACEUTICAL APPLICATION THEREOF” (Jiangsu Hengrui Pharmaceuticals Co., Ltd., priority 2022, published 2025).
